Results on three compounds are retold here after patent US20230295234A1, “ANTIMICROBIAL PEPTIDOMIMETICS” (SPEXIS AG, priority 2020, published 2023).

The subject of data set [1] is human red blood cells (hRBC). As to the kind of experiment: Hemolysis of human red blood cells. Format: cell-based. The following applies: red cells of human, 1 h. On the procedure: Lyophilized peptides were weighed on a Microbalance (Mettler MT5) and dissolved in sterile water to a final concentration of 1 mg/mL. Stock solutions were kept at +4° C., light protected. The peptides were tested for their hemolytic activity against human red blood cells (hRBC). Fresh hRBC were washed three times with phosphate buffered saline (PBS) and centrifuged for 5 min at 3000×g. Compounds (200 μg/mL) were incubated with 20% hRBC (v/v) for 1 h at 37° C. and shaking at 300 rpm. […] The samples were centrifuged, the supernatants were 8-fold diluted in PBS buffer and the optical densities (OD) were measured at 540 nm. […] Percent hemolysis was calculated as follows: (OD540peptide/OD540H2O)×100%.

Data set [2] deals with Klebsiella pneumoniae SSI3010. The conditions noted are these: SSI3010. On the procedure:
(§1) Lyophilized peptides were weighed on a Microbalance (Mettler MT5) and dissolved in sterile water to a final concentration of 1 mg/mL. Stock solutions were kept at +4° C., light protected.
(§2) Colonies of the microorganisms were diluted in saline (0.85%, NaCl) and adjusted using a McFarland reader (bioMérieux SA, Marcy-l'Etoile, France) to 0.5 McFarland standard. Subsequently, the bacterial suspension was diluted in Mueller-Hinton II (MHII, cation adjusted) broth to give approximately 5×10^5 colony forming units (CFU/mL).
(§3) 10^6 colony forming units (CFU)/mL. Aliquots (90 μl) of inoculate were added to 10 μl of water+P-80 (Polysorbate 80, 0.002% final concentration) containing the peptide in serial two-fold dilutions at 10 fold final concentration. The following microorganisms were used to determine antibiotic selectivity of the peptides: Escherichia coli ATCC 25922, Escherichia coli MCR-1 Af 45 and Klebsiella pneumoniae SSI3010.

Data set [3] relates to Escherichia coli ATCC 25922. The following applies: ATCC 25922. On the procedure: as §1, §2, §3

Bridge positions count the residues as written; N and C are the ends. Square brackets hold non-standard residues; d marks the D form. Peptide text beside a SMILES is read from it. Pro(4R-NH2) = N[C@H]1CN[C@H](C(=O)O)C1; Hyp = O=C(O)[C@@H]1C[C@@H](O)CN1; Pen = CC(C)(S)[C@H](N)C(=O)O; dDab = NCC[C@@H](N)C(=O)O; Dab = NCC[C@H](N)C(=O)O; Nlys = NCCCCNCC(=O)O

In the case of `CC[C@H](C)[C@H](NC(=O)[C@@H]1C[C@@H](O)CN1C(=O)[C@@H](NC(=O)[C@@H]1C[C@@H](N)CN1C(=O)[C@H](CCCCN)NC(=O)[C@@H](N)CCCCN)C(C)C)C(=O)N[C@H](C(=O)N[C@@H](Cc1ccc(O)cc1)C(=O)N[C@@H]1C(=O)N[C@@H](CC(N)=O)C(=O)N[C@@H](CCCNC(=N)N)C(=O)N[C@@H](CCN)C(=O)N[C@@H]([C@@H](C)O)C(=O)N[C@H](CCN)C(=O)N[C@@H](CCCCN)C(=O)N[C@H](C(=O)N[C@@H](CCN)C(=O)N[C@@H](CCCNC(=N)N)C(=O)N[C@@H](Cc2ccc(O)cc2)C(=O)O)CSSC1(C)C)[C@@H](C)O` [Example 127, Lys-Lys-Pro((4R)NH2)-Val-Hyp-Ile-Thr-Tyr-Pen-Asn-Arg-Dab-Thr-^DDab-Lys-Cys-Dab-Arg-Tyr] (HELM PEPTIDE1{K.K.[N[C@@H]1C[C@@H](C(=O)[*:2])N([*:1])C1].V.[Hyp].I.T.Y.[Pen].N.R.[Dab].T.[NCC[C@@H](N[*:1])C(=O)[*:2]].K.C.[Dab].R.Y}$PEPTIDE1,PEPTIDE1,9:R3-16:R3$$$V2.0; N-terminus and C-terminus assumed), the “Hemolysis at 0.2 g/L” value in data set [1] was found to be 0%. Besides, in data set [2], the “Klebsiella pneumoniae SSI3010 MIC” value worked out at 0.0625 µg/mL. The “Escherichia coli ATCC 25922 MIC” value in data set [3] turned out to be 0.0625 µg/mL.

In the case of `CCCC[C@H](NC(=O)[C@H](CCCNC(=N)N)NC(=O)[C@H](CCN)NC(=O)[C@@H]1CSSC[C@H](NC(=O)[C@H](Cc2ccc(O)cc2)NC(=O)[C@@H](NC(=O)[C@@H](NC(=O)[C@@H]2C[C@@H](O)CN2C(=O)[C@@H](NC(=O)[C@@H]2C[C@@H](O)CN2C(=O)[C@H](CCCCN)NC(=O)[C@@H](N)CCCCN)C(C)C)[C@@H](C)CC)[C@@H](C)CC)C(=O)N[C@@H](CC(N)=O)C(=O)N[C@@H](CCCNC(=N)N)C(=O)N[C@@H](CCN)C(=O)N[C@@H]([C@@H](C)O)C(=O)N[C@H](CCN)C(=O)N[C@@H](CCCCN)C(=O)N1)C(=O)O` [Example 78, Lys-Lys-Hyp-Val-Hyp-Ile-Ile-Tyr-Cys-Asn-Arg-Dab-Thr-^DDab-Lys-Cys-Dab-Arg-Nle] (HELM PEPTIDE1{K.K.[Hyp].V.[Hyp].I.I.Y.C.N.R.[Dab].T.[NCC[C@@H](N[*:1])C(=O)[*:2]].K.C.[Dab].R.[Nle]}$PEPTIDE1,PEPTIDE1,9:R3-16:R3$$$V2.0), the “Hemolysis at 0.2 g/L” value in data set [1] turned out to be 0%. Moreover, the “Klebsiella pneumoniae SSI3010 MIC” value in data set [2] was found to be 0.125 µg/mL. Moreover, the “Escherichia coli ATCC 25922 MIC” value in data set [3] was determined as 0.125 µg/mL.

As to `CC[C@H](C)[C@H](NC(=O)[C@@H]1C[C@@H](O)CN1C(=O)[C@@H](NC(=O)[C@@H]1C[C@@H](N)CN1C(=O)CNCCCCN)C(C)C)C(=O)N[C@H](C(=O)N[C@@H](Cc1ccc(O)cc1)C(=O)N[C@@H]1C(=O)N[C@@H](CC(N)=O)C(=O)N[C@@H](CCCNC(=N)N)C(=O)N[C@@H](CCN)C(=O)N[C@@H]([C@@H](C)O)C(=O)N[C@H](CCN)C(=O)N[C@@H](CCCCN)C(=O)N[C@H](C(=O)N[C@@H](CCN)C(=O)N[C@@H](CCCNC(=N)N)C(=O)N[C@@H](Cc2ccc(O)cc2)C(=O)O)CSSC1(C)C)[C@@H](C)O` [Example 52, Nlys-Pro((4R)NH2)-Val-Hyp-Ile-Thr-Tyr-Pen-Asn-Arg-Dab-Thr-^DDab-Lys-Cys-Dab-Arg-Tyr] (H-[Nlys][Pro(4R-NH2)]V[Hyp]ITY[Pen]NR[Dab]T[dDab]KC[Dab]RY-OH; disulfide 8-15), the “Hemolysis at 0.2 g/L” value in data set [1] worked out at 0%. Moreover, in data set [2], the “Klebsiella pneumoniae SSI3010 MIC” value stood at 0.125 µg/mL. Also, the “Escherichia coli ATCC 25922 MIC” value in data set [3] is 0.0625 µg/mL.
